One assay concerns the target T1, HCV NS3/4A wild type (Hepatitis C virus genotype 1b, UniProt Q9WMX2).
T1 construct: HCV NS3/4A wild type (wt) was incubated for 1 hr at a 10× fold access of test compound to protein; purchased Bioenza, Calif
Put plainly: Mass spectrometric analysis of covalent modification (MALDI-TOF). It counts as binding. Particulars: 10× excess of test compound to protein; for Covalent modification of HCV NS3/4A wild type: MALDI-TOF. How it is done:
Mass spectrometric analysis of HCV wild type or HCV variant C159S in the presence of test compound is performed. 100 pmols of HCV wild type (Bioenza, Calif.) is incubated with test compound for 1 hr and 3 hrs at 10-fold access of test compound to protein. 1 ul aliquots of the samples (total volume of 4.24 ul) are diluted with 10 ul of 0.1% TFA prior to micro C4 ZipTipping directly onto the MALDI target using Sinapinic acid as the desorption matrix (10 mg/mL in 0.1% TFA:Acetonitrile 50:50). Analyses are performed on a Shimadzu Biotech Axima TOF2 (Shimadzu Instruments) matrix-assisted-laser desorption/ionization Time-of-Flight (MALDI-TOF) mass spectrometer. The same procedure is carried out on 100 pmols of HCV C159S mutant of HCV protease for 3 hrs at 10-fold excess of test compound to protein.
As depicted in FIGS. 1 and 2, mass spectrometric analysis of HCV wild type in the presence of test compounds I-1 and I-25 was performed using the following protocol: HCV NS3/4A wild type (wt) was incubated for 1 hr at a 10× fold access of test compound to protein. 2 ul aliquots of the samples were diluted with 10 ul of 0.1% TFA prior to micro C4 ZipTipping directly onto the MALDI target using Sinapinic acid as the desorption matrix (10 mg/ml in 0.1% TFA:Acetonitrile 50:50). For intact protein mass measurement the instrument was set in linear mode using a pulsed extraction setting of 24,500 and apomyoglobin as the standard to calibrate the instrument.

Assay [1] concerns HCV RNA replicon in cell line ET (luc-ubi-neo/ET), human Huh7 hepatoma. Put plainly: HCV RNA replicon assay, Example 14 Method A. It counts as cell-based. Particulars: Hepatitis C virus, Huh-7, assay of Example 14, 72 hr; for IC50: read-out: Inhibition, Replicon (IC50); for IC90: read-out: Inhibition, Replicon, IC90 value. The method, then: The compounds were assayed to evaluate the antiviral activity and cytotoxicity of compounds in vitro using HCV RNA replicons. This assay used the cell line ET (luc-ubi-neo/ET), which is a human Huh7 hepatoma cell line that contains an HCV RNA replicon with a stable luciferase (Luc) reporter and three cell culture-adaptive mutations. […]
The ET cell line was grown in Dulbecco's modified essential media (DMEM), 10% fetal bovine serum (FBS), 1% penicillin-streptomycin (pen-strep), 1% glutamine, 250 μg/mL G418 in a 5% CO2 incubator at 37° C. All cell culture reagents were obtained from Mediatech (Manassas, Va.). Cells were trypsinized (1% trypsin:EDTA) and plated out at 5×10^3 cells/well in white 96-well assay plates (Costar) dedicated to cell number (cytotoxicity) or antiviral activity assessments. Drugs were added at six 3-fold concentrations each and the assay was run in DMEM, 5% FBS, 1% pen-strep, 1% glutamine. Human interferon alpha-2b (PBL Biolabs, New Brunswick, N.J.) was included in each run as a positive control compound. Cells were processed 72 hr post drug addition when the cells are still subconfluent. Antiviral activity was measured by analyzing replicon-derived luciferase activity using the Steady-Glo Luciferase Assay System (Promega, Madison, Wis.) according to manufacturer's instruction. The number of cells in each well was determined by CytoTox-1 reagent (Promega). Compound profile was derived by calculating applicable EC50 (effective concentration inhibiting virus replication by 50%), EC90 (effective concentration inhibiting virus replication by 90%), IC50 (concentration decreasing cell viability by 50%) and SI50 (selective index: […]) values.
(In general: In antiviral work, replicon cells carry a viral genome segment that copies itself.)

The target in assay [2] is T2, HCV NS3/4A 1b protease A156T (Hepatitis C virus genotype 1b, UniProt Q9WMX2, A1182T).
T2 construct: 10× stocks of NS3/4A protease enzyme from Bioenza (Mountain View, Calif.); purchased Bioenza (Mountain View, Calif.)
The experiment in a line: HCV protease FRET assay (IC50_APP), Example 16. It counts as biochemical. How it is done: (§1) The following protocol was used to generate “apparent” IC50 (IC50 APP) values as depicted in Table 6, below. […] 5 μL of each enzyme were added to Corning (#3575) 384-well, black, microtiter plates (Corning, N.Y.) after spotting a 0.5 μL volume of 50% DMSO and serially diluted compounds prepared in 50% DMSO. Protease reactions were immediately started after enzyme addition with the addition of 45 μL of the FRET substrate and monitored for 60-90 minutes at λex485/λem520 in a Synergy^4 plate reader from BioTek (Winooski, Vt.). At the conclusion of each assay, progress curves from each well were examined for linear reaction kinetics and fit statistics (R^2, 95% confidence intervals, absolute sum of squares).
(§2) The compound numbers correspond to the compound numbers in Table 3. […] ;

Assay [3] has as its target T3, HCV NS3/4A 1b protease D168A (Hepatitis C virus genotype 1b, UniProt Q9WMX2, D1194A).
T3 construct: 10× stocks of NS3/4A protease enzyme from Bioenza (Mountain View, Calif.); purchased Bioenza (Mountain View, Calif.)
The experiment in a line: HCV protease FRET assay (IC50_APP), Example 16. It is filed as biochemical. How it is done: as §1, §2

Assay [4] concerns the target T4, HCV NS3/4A 1b protease wild type (Hepatitis C virus genotype 1b, UniProt Q9WMX2).
T4 construct: 10× stocks of NS3/4A protease enzyme from Bioenza (Mountain View, Calif.); purchased Bioenza (Mountain View, Calif.)
The experiment in a line: HCV protease FRET assay (IC50_APP), Example 16. It counts as biochemical. The method, then:
as §1, §2

The target in assay [5] is T5, HCV NS3/4A 1b protease R155K (Hepatitis C virus genotype 1b, UniProt Q9WMX2, R1181K).
T5 construct: 10× stocks of NS3/4A protease enzyme from Bioenza (Mountain View, Calif.); purchased Bioenza (Mountain View, Calif.)
Put plainly: HCV protease FRET assay (IC50_APP), Example 16. Particulars: reaction started immediately after enzyme addition, read-out: Inhibition (apparent IC50, IC50_APP), HCV R155K. It counts as biochemical. How it is done:
as §1, §2

As a reminder, the IC50 is the concentration that inhibits the measured activity by half. A word on the IC90: it is the point of the concentration-response curve where the effect stands at 90%.

The structures appear in SMILES notation.

Regarding `C=C[C@@H]1C[C@]1(NC(=O)[C@@H]1C[C@@H](OC(=O)N2Cc3cccc(F)c3C2)CN1C(=O)[C@H](CNS(=O)(=O)C=C)NC(=O)OC(C)(C)C)C(=O)NS(=O)(=O)C1CC1` [Compound I-2, (3R,5S)-1-((S)-2-(tert-butoxycarbonylamino)-3-(vinylsulfonamido)propanoyl)-5-((1R,2S)-1-(cyclopropylsulfonylcarbamoyl)-2-vinylcyclopropylcarbamoyl)pyrrolidin-3-yl 4-fluoroisoindoline-2-carboxylate], the “Covalent modification of HCV NS3/4A wild type” value (“Covalent modification” for short) on HCV NS3/4A wild type was “measurable covalent modification”. For the same compound, the concentration for half-maximal inhibition (IC50) was 10 to 100 nM in assay [1], less than 10 nM in assay [2], less than 10 nM in assay [3] and less than 10 nM in assay [4]. Further, the IC90 in assay [1] lay within 100 to 1000 nM.
Regarding `C=CC(=O)NCC[C@H](NC(=O)OC(C)(C)C)C(=O)N1C[C@H](OC(=O)N2Cc3cccc(F)c3C2)C[C@H]1C(=O)N[C@]1(C(=O)NS(=O)(=O)C2CC2)C[C@H]1C=C` [Compound I-5, (3R,5S)-1-((S)-4-acrylamido-2-(tert-butoxycarbonylamino)butanoyl)-5-((1R,2S)-1-(cyclopropylsulfonylcarbamoyl)-2-vinylcyclopropylcarbamoyl)pyrrolidin-3-yl 4-fluoroisoindoline-2-carboxylate], the “Covalent modification” value on HCV NS3/4A wild type is “measurable covalent modification”. Moreover, the IC50 in assay [1] was 10 to 100 nM; in assay [2] it was 10 to 100 nM; in assay [3] it was 100 to 1000 nM; in assay [4] it was less than 10 nM. Also, in assay [1], the IC90 lay within 100 to 1000 nM.
For `C=CC(=O)N(C)CC[C@H](NC(=O)OC(C)(C)C)C(=O)N1C[C@H](OC(=O)N2Cc3cccc(F)c3C2)C[C@H]1C(=O)N[C@]1(C(=O)NS(=O)(=O)C2CC2)C[C@H]1C=C` [Compound I-13, (3R,5S)-1-((S)-2-(tert-butoxycarbonylamino)-4-(N-methylacrylamido)butanoyl)-5-((1R,2S)-1-(cyclopropylsulfonylcarbamoyl)-2-vinylcyclopropylcarbamoyl)pyrrolidin-3-yl 4-fluoroisoindoline-2-carboxylate], the “Covalent modification” value at HCV NS3/4A wild type is “measurable covalent modification”. Besides, the IC50 is 10 to 100 nM in assay [1], less than 10 nM in assay [2], 100 to 1000 nM in assay [3] and less than 10 nM in assay [4]. In addition, the IC90 in assay [1] lay within 100 to 1000 nM.
As to `C=CC(=O)N(C)C[C@H](NC(=O)OC1CCCC1)C(=O)N1C[C@H](OC(=O)N2Cc3cccc(F)c3C2)C[C@H]1C(=O)N[C@]1(C(=O)NS(=O)(=O)C2CC2)C[C@H]1C=C` [Compound I-20, (3R,5S)-1-((S)-2-(cyclopentyloxycarbonylamino)-3-(N-methylacrylamido)propanoyl)-5-((1R,2S)-1-(cyclopropylsulfonylcarbamoyl)-2-vinylcyclopropylcarbamoyl)pyrrolidin-3-yl 4-fluoroisoindoline-2-carboxylate], the “Covalent modification” value at HCV NS3/4A wild type is on record as “measurable covalent modification”. Moreover, the IC50 in assay [1] was 10 to 100 nM; in assay [2] it was less than 10 nM; in assay [3] it was 10 to 100 nM; in assay [4], less than 10 nM. Besides, the concentration for an effect of 90% (IC90) in assay [1] is 100 to 1000 nM.
Consider `C=C[C@@H]1C[C@]1(NC(=O)[C@@H]1C[C@@H](OC(=O)N2Cc3cccc(F)c3C2)CN1C(=O)[C@@H](NC(=O)OC(C)(C)C)[C@@H](C)OC(=O)/C=C/C)C(=O)NS(=O)(=O)C1CC1` [Compound I-22, (3R,5S)-1-((2S,3R)-3-((E)-but-2-enoyloxy)-2-(tert-butoxycarbonylamino)butanoyl)-5-((1R,2S)-1-(cyclopropylsulfonylcarbamoyl)-2-vinylcyclopropylcarbamoyl)pyrrolidin-3-yl-4-fluoroisoindoline-2-carboxylate], for which the “Covalent modification” value at HCV NS3/4A wild type is listed as “measurable covalent modification”. The IC50 in assay [1] is 10 to 100 nM; in assay [2] it was 10 to 100 nM; in assay [3], 100 to 1000 nM; in assay [4], less than 10 nM; in assay [5] it was 10 to 100 nM. The 90% effect concentration (IC90) in assay [1] was 10 to 100 nM.
As for `C=C[C@@H]1C[C@]1(NC(=O)[C@@H]1C[C@@H](OC(=O)N2Cc3cccc(F)c3C2)CN1C(=O)[C@H](COC(=O)C(=C)NC(=O)OC(C)(C)C)NC(=O)OC(C)(C)C)C(=O)NS(=O)(=O)C1CC1` [Compound I-23, (3R,5S)-1-((S)-2-(tert-butoxycarbonylamino)-3-(2-(tert-butoxycarbonylamino)acryloyloxy)propanoyl)-5-((1R,2S)-1-(cyclopropylsulfonylcarbamoyl)-2-vinylcyclopropylcarbamoyl)pyrrolidin-3-yl 4-fluoroisoindoline-2-carboxylate], the “Covalent modification” value on HCV NS3/4A wild type was “measurable covalent modification”. The half-inhibitory concentration (IC50) was 10 to 100 nM in assay [1], less than 10 nM in assay [2], less than 10 nM in assay [3] and less than 10 nM in assay [4]. Further, in assay [1], the 90% effect concentration (IC90) lay within 100 to 1000 nM.
Consider `C=C[C@@H]1C[C@]1(NC(=O)[C@@H]1C[C@@H](OC(=O)N2Cc3cccc(F)c3C2)CN1C(=O)[C@H](CCC(=O)C=C(C)C)NC(=O)OC(C)(C)C)C(=O)NS(=O)(=O)C1CC1` [Compound I-25, (3R,5S)-1-((S)-2-(tert-butoxycarbonylamino)-7-methyl-5-oxooct-6-enoyl)-5-((1R,2S)-4-(cyclopropylsulfonylcarbamoyl)-2-vinylcyclopropylcarbamoyl)pyrrolidin-3-yl 4-fluoroisoindoline-2-carboxylate], for which the “Covalent modification” value at HCV NS3/4A wild type is recorded as “conversion to a new peak”. For the same compound, the “Mass increase of new protein species vs protein with no compound” value on HCV NS3/4A wild type (1 hr) is 773 Da. For the same compound, the half-maximal inhibitory concentration (IC50) in assay [1] was less than 10 nM; in assay [2], 10 to 100 nM; in assay [3], 100 to 1000 nM; in assay [4] it was less than 10 nM; in assay [5] it was 10 to 100 nM. In addition, in assay [1], the IC90 is 10 to 100 nM.
For `C=C[C@@H]1C[C@]1(NC(=O)[C@@H]1CC(OC(=O)N2Cc3cccc(F)c3C2)CN1C(=O)[C@H](CCC(=O)C(=C)C)NC(=O)OC(C)(C)C)C(=O)NS(=O)(=O)C1CC1` (stereo partly drawn) [Compound I-27], at HCV NS3/4A wild type, the “Covalent modification” value is on record as “measurable covalent modification”. The IC50 in assay [1] is 10 to 100 nM; in assay [2] it was less than 10 nM; in assay [3] it was less than 10 nM; in assay [4], less than 10 nM. Besides, in assay [1], the IC90 is 100 to 1000 nM.
